Results as given in US4356183A, “Antihypertensive 4-thiazolidinecarboxylic acids (pyridyl derivatives)” (Santen Pharmaceutical Co., Ltd., priority 1978, dated 1982).
Like-named read-outs stand apart in the source and are kept apart here. Each block holds one compound with its values, some of them ahead of it.

What was measured:
[1] = test system: contractile response of isolated guinea pig ileum to angiotensin I; assay: Inhibition of contractile response of isolated guinea pig ileum to angiotensin I; assay type: cell-based; conditions: angiotensin I 0.1 μg/ml, compound added 5 min before, 30° C., read-out: Angiotensin I IC50 (50% inhibition of angiotensin I activity inducing the contraction of guinea pig ileum)
From the text: As the method of measurement of angiotensin I-converting enzyme activity, bioassay for the contractile response of isolated smooth muscle or the pressor response of normal animals and biochemical assay for the enzyme isolated from lung or other organs of animals are known. The former is found more advantageous than the latter for the examination of the convertion of angiotensin I to angiotensin II in vivo.
In the present study, therefore, we adopted the bioassay for contractile response of isolated guinea pig ileum to angiotensin I.
(§1) Measurement of inhibitory activity of angiotensin I-converting enzyme
(§2) Isolated guinea pig ileum was suspended in the organ bath containing 20 ml of Tyrode's solution of 30° C. gassed with 95% O2 +5% CO2. The contraction induced by the addition of angiotensin I (0.1 μg/ml) at intervals of 10 minutes was recorded on a recticorder (Nihon Koden) for 90 seconds using FD pick up (ST-1T-H, Nihon Koden).
(§3) The test compounds were added to the bath 5 minutes before the addition of angiotensin I.
The inhibitory activity of angiotensin I-converting enzyme was calculated by the following formula. [formula] A: contractile intensity of angiotensin I before addition of the compound B: contractile intensity of angiotensin I after addition of the compound

[2] = biological target: T1, angiotensin I-converting enzyme (Oryctolagus cuniculus, UniProt P12822); assay: Inhibition of angiotensin I-converting enzyme by spectrophotometry (HHL substrate); assay type: biochemical; conditions: enzyme from rabbit lung; 5 mM HHL; pH 8.3; 37° C., 30 min
T1 construct: angiotensin I-converting enzyme extracted from rabbit lung; from tissue; host or cells: rabbit lung
T1 sequence (P12822 34-1310): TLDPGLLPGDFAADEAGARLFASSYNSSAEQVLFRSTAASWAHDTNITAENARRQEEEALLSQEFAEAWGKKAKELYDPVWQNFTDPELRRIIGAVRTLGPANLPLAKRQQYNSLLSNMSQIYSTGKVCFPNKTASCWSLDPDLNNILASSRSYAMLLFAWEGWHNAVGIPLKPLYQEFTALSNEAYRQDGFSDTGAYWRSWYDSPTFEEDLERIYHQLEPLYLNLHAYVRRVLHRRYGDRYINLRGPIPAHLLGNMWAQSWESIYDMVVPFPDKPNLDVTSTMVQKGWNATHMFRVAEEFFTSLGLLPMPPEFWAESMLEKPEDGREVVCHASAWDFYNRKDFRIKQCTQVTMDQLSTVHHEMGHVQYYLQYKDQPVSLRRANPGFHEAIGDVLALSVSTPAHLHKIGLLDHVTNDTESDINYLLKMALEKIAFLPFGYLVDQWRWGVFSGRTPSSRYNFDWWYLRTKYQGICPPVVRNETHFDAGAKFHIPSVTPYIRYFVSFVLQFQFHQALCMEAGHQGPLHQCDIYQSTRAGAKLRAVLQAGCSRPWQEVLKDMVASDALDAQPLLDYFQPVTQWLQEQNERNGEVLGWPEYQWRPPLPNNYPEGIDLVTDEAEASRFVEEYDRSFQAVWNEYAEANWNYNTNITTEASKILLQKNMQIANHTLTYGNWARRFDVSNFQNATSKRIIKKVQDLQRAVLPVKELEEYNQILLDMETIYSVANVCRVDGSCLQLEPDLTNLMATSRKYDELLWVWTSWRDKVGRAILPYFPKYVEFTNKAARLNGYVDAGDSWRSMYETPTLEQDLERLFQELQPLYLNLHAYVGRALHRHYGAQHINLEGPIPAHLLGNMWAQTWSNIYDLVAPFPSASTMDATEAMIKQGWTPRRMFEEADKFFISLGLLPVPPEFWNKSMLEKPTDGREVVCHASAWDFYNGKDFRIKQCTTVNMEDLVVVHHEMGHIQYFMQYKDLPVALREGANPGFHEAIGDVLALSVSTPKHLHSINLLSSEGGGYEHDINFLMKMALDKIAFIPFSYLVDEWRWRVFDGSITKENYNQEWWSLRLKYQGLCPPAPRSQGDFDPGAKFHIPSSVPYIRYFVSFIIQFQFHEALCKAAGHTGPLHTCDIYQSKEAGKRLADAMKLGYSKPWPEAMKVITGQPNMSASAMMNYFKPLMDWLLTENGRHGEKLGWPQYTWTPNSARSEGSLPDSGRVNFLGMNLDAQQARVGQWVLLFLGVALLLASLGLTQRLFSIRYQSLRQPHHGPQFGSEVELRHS
Method: That is, the absorbance of hippuric acid was measured, which is liberated by incubating hippuryl-L-histidyl-L-leucine (HHL) as substrate in the presence of angiotensin I-converting enzyme extracted from rabbit lung.
as §1
The reaction mixture is as follows:
100 mM phosphate buffer (pH 8.3)
10^-3 ~10^-9 M enzyme inhibitor
0.25 ml of the above mixture was incubated at 37° C. for 30 minutes and the reaction was stopped by adding 0.25 ml of 1 N hydrochloric acid. To this solution, 1.5 ml of ethyl acetate was added in order to extract hippuric acid. 1.0 ml of ethyl acetate layer was collected and evaporated to dryness, and the residue obtained was dissolved in 1.0 ml of water.
The inhibitory activity of angiotensin I-converting enzyme was calculated by the following formula: [formula]

[3] = test system: contractile response to bradykinin (isolated guinea pig ileum); assay: Augmentation of contractile response of isolated guinea pig ileum to bradykinin; assay type: cell-based; conditions: bradykinin 0.005 μg/ml, compound added 5 min before, 30° C., read-out: Bradykinin AC50 (50% augmentation of bradykinin activity inducing the contraction of guinea pig ileum)
Method: as §2, §3
From the fact that kininase II, which destroys bradykinin having contractive action on isolated guinea pig ileum, is thought to be identical with angiotensin I-converting enzyme, augmentation of the contractile response to bradykinin by test compounds was examined by using bradykinin (0.005 μg/ml) in place of angiotensin I according to the above mentioned method.

[4] = test system: pressor response to angiotensin I; assay: Inhibition of pressor response to angiotensin I in rats after oral administration; assay type: in vivo, rat (male Wistar); conditions: angiotensin I 300 ng/kg i.v.; for Inhibition (%) of pressor response to angiotensin I, 5 min / Inhibition (%) of pressor response to angiotensin I, 15 min / Inhibition (%) of pressor response to angiotensin I, 25 min / Inhibition (%) of pressor response to angiotensin I, 35 min / Inhibition (%) of pressor response to angiotensin I, 45 min / Inhibition (%) of pressor response to angiotensin I, 55 min / Inhibition (%) of pressor response to angiotensin I, 65 min / Inhibition (%) of pressor response to angiotensin I, 75 min / Inhibition (%) of pressor response to angiotensin I, 85 min: dose: 3, 45, 49 1.8 mg/kg, 4, 46 1.3, 50 1.4, 76 2.0, 77 1.5; for Inhibition (%) of pressor response to angiotensin I, 95 min: dose: 45, 49 1.8 mg/kg, 4, 46 1.3, 50 1.4, 76 2.0, 77 1.5; for Inhibition (%) of pressor response to angiotensin I, 105 min / Inhibition (%) of pressor response to angiotensin I, 115 min: dose: 45, 49 1.8 mg/kg, 46 1.3, 50 1.4, 76 2.0, 77 1.5
Method: Male Wistar strain rats weighing about 200-300 g were used.
Under ether anesthesia, polyethylene cannulae are inserted into carotid arthery and jugular vein. The cannula to carotid artery is connected to an electric transducer, while the cannula to jugular vein is connected to an apparatus for continuous infusion. After the complete recovery from anesthesia, angiotensin I is infused intravenously in a dose of 300 ng/kg by the apparatus for continuous infusion, and the pressor response is recorded by polygraph (Nihon Koden, RM-150).
The compounds of this invention suspended in 0.5% tragacanth solution are administered orally in a dose of 0.3 ml per 100 g of body weight, and the pressor response to angiotensin I infused intravenously is measured with time.
The inhibitory activity of the compounds against angiotensin I-converting enzyme is expressed as the percent inhibition of pressor response to angiotensin I.

IC50 ([1]; Cavia porcellus): 410 nM
IC50 [2]: 650 nM
SMILES: O=C(O)[C@@H]1CSC(CCS)N1C(=O)CCS (single isomer, unassigned) [Compound 6a]
AC50 [3]: 15 nM

IC50 [1]: 300 nM
IC50 [2]: 370 nM
SMILES: O=C(O)[C@@H]1CSC(CCS)N1C(=O)CCS (single isomer, unassigned) [Compound 6b]
AC50 [3]: 3.7 nM

IC50 ([1]; Cavia porcellus): 85 nM
IC50 [2]: 250 nM
SMILES: C[C@H](CS)C(=O)N1C(CCS)SC[C@H]1C(=O)O (single isomer, unassigned) [Compound 8a]
AC50 ([3]; Cavia porcellus): 1.4 nM

IC50 [1]: 140 nM
IC50 [2]: 290 nM
SMILES: C[C@H](CS)C(=O)N1C(CCS)SC[C@H]1C(=O)O (single isomer, unassigned) [Compound 8b]
AC50 [3]: 1.1 nM

IC50 ([1]; Cavia porcellus): 810 nM
IC50 [2]: 2800 nM
SMILES: C[C@H](CS)C(=O)N1C(Cc2ccccc2)SC[C@H]1C(=O)O (single isomer, unassigned) [Compound 10a]
AC50 ([3]; Cavia porcellus): 13 nM

IC50 [1]: 580 nM
IC50 [2]: 310 nM
SMILES: C[C@H](CS)C(=O)N1C(Cc2ccccc2)SC[C@H]1C(=O)O (single isomer, unassigned) [Compound 10b]
AC50 [3]: 10 nM

IC50 ([1]; Cavia porcellus): 480 nM
IC50 [2]: 3200 nM
SMILES: CC(C)=CCCC(C)CC1SC[C@@H](C(=O)O)N1C(=O)[C@H](C)CS (stereo partly drawn) [Compound 2]
AC50 ([3]; Cavia porcellus): 19 nM

SMILES: C[C@H](CSC(=O)c1ccccc1)C(=O)N1C(C2CCCCC2)SC[C@H]1C(=O)O (stereo partly drawn) [Compound 3]
Inhibition (%) of pressor response to angiotensin I, 5 min [4]: 35.2%
Inhibition (%) of pressor response to angiotensin I, 15 min [4]: 40.8%
Inhibition (%) of pressor response to angiotensin I, 25 min [4]: 26.9%
Inhibition (%) of pressor response to angiotensin I, 35 min [4]: 17.9%
Inhibition (%) of pressor response to angiotensin I, 45 min [4]: 14.2%
Inhibition (%) of pressor response to angiotensin I, 55 min [4]: 14.8%
Inhibition (%) of pressor response to angiotensin I, 65 min [4]: 6.3%
Inhibition (%) of pressor response to angiotensin I, 75 min [4]: 9.5%
Inhibition (%) of pressor response to angiotensin I, 85 min [4]: 5.8%

IC50 ([1]; Cavia porcellus): 900 nM
IC50 [2]: 13000 nM
SMILES: O=C(O)[C@@H]1CSC(c2ccccc2)N1C(=O)CS (stereo partly drawn) [Compound 12]
AC50 ([3]; Cavia porcellus): 19 nM

IC50 ([1]; Cavia porcellus): 240 nM
IC50 [2]: 450 nM
SMILES: O=C(O)[C@@H]1CSC(c2ccccc2)N1C(=O)CCS (stereo partly drawn) [Compound 16]
AC50 ([3]; Cavia porcellus): 2.6 nM

IC50 ([1]; Cavia porcellus): 170 nM
IC50 [2]: 540 nM
SMILES: Cc1ccc(C2SC[C@@H](C(=O)O)N2C(=O)[C@H](C)CS)cc1 (stereo partly drawn) [Compound 22]
AC50 ([3]; Cavia porcellus): 3.9 nM

IC50 ([1]; Cavia porcellus): 700 nM
IC50 [2]: 3600 nM
SMILES: O=C(O)[C@@H]1CSC(c2ccccc2Cl)N1C(=O)CCS (stereo partly drawn) [Compound 24]
AC50 ([3]; Cavia porcellus): 16 nM

SMILES: O=C(SCCC(=O)N1C(c2ccccc2O)SC[C@H]1C(=O)O)c1ccccc1 (stereo partly drawn) [Compound 45, (4R)-3-(S-Benzoyl-3-mercaptopropanoyl)-2-(2-hydroxyphenyl)-4-thiazolidinecarboxylic acid]
Inhibition (%) of pressor response to angiotensin I, 5 min [4]: 20.0%
Inhibition (%) of pressor response to angiotensin I, 15 min [4]: 26.6%
Inhibition (%) of pressor response to angiotensin I, 25 min [4]: 30.1%
Inhibition (%) of pressor response to angiotensin I, 35 min [4]: 31.8%
Inhibition (%) of pressor response to angiotensin I, 45 min [4]: 20.9%
Inhibition (%) of pressor response to angiotensin I, 55 min [4]: 13.5%
Inhibition (%) of pressor response to angiotensin I, 65 min [4]: 19.0%
Inhibition (%) of pressor response to angiotensin I, 75 min [4]: 14.9%
Inhibition (%) of pressor response to angiotensin I, 85 min [4]: 20.9%
Inhibition (%) of pressor response to angiotensin I, 95 min [4]: 10.3%
Inhibition (%) of pressor response to angiotensin I, 105 min [4]: 10.3%
Inhibition (%) of pressor response to angiotensin I, 115 min [4]: 8.8%

SMILES: COc1ccc(C2SC[C@@H](C(=O)O)N2C(=O)[C@H](C)CSC(=O)c2ccccc2)c(O)c1 (stereo partly drawn) [Compound 76]
Inhibition (%) of pressor response to angiotensin I, 5 min [4]: 26.0%
Inhibition (%) of pressor response to angiotensin I, 15 min [4]: 45.9%
Inhibition (%) of pressor response to angiotensin I, 25 min [4]: 56.1%
Inhibition (%) of pressor response to angiotensin I, 35 min [4]: 55.9%
Inhibition (%) of pressor response to angiotensin I, 45 min [4]: 58.2%
Inhibition (%) of pressor response to angiotensin I, 55 min [4]: 47.1%
Inhibition (%) of pressor response to angiotensin I, 65 min [4]: 48.9%
Inhibition (%) of pressor response to angiotensin I, 75 min [4]: 40.7%
Inhibition (%) of pressor response to angiotensin I, 85 min [4]: 41.7%
Inhibition (%) of pressor response to angiotensin I, 95 min [4]: 32.2%
Inhibition (%) of pressor response to angiotensin I, 105 min [4]: 30.6%
Inhibition (%) of pressor response to angiotensin I, 115 min [4]: 28.5%
